Test results reported in ChEMBL document CHEMBL1131802, “Design and synthesis of beta-carboxamido phosphonates as potent inhibitors of imidazole glycerol phosphate dehydratase” (Bioorg Med Chem Lett, 1999).

Key:
[1] = target: T1, Imidazoleglycerol-phosphate dehydratase (Cryptococcus neoformans var. neoformans B-3501A, UniProt P0CO23); test: Inhibitory concentration against imidazole glycerol phosphate dehydratase (IGPD) from Cryptococcus neoformans
[2] = target: Imidazoleglycerol-phosphate dehydratase (Cryptococcus neoformans var. neoformans B-3501A) (UniProt P0CO23); test: Kinetic constant for the inhibition of imidazole glycerol phosphate dehydratase (IGPD)
Sequence of Imidazoleglycerol-phosphate dehydratase (Cryptococcus neoformans var. neoformans B-3501A) (P0CO23 whole entry, looked up): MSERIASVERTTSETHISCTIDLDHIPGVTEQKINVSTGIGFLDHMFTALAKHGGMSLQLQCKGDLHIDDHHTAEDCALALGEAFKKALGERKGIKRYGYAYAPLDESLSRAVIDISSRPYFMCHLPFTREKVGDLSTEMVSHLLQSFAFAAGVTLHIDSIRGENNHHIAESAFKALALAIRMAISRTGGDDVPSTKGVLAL

[3] = target: T1, Imidazoleglycerol-phosphate dehydratase; test: Binding affinity imidazole glycerol phosphate dehydratase (IGPD) obtained from Cryptococcus neoformans

T1 sequence (P0CO23 whole entry, looked up): as above

| IC50 [1] | Kis [2] | Ki [3] | SMILES |
| --- | --- | --- | --- |
| > 50000 nM | 33 µM | 7500 nM | O=C(NC(Cn1cncn1)CP(=O)(O)O)c1ccco1 (centres undefined) |
| 2800 nM | 3.95 µM | 700 nM | COC(=O)CCCC(=O)NC(Cn1cncn1)CP(=O)(O)O (centres undefined) |
| 1500 nM | 1.22 µM | 230 nM | CC(Oc1ccccc1)C(=O)NC(Cn1cncn1)CP(=O)(O)O (centres undefined) |
| 17000 nM | 19 µM | 4000 nM | O=C(NC(Cn1cncn1)CP(=O)(O)O)C1CC1 (centres undefined) |
| 910 nM | 1.23 µM | 230 nM | O=C(CO)NC(Cn1cncn1)CP(=O)(O)O (centres undefined) |
| 6100 nM | 9 µM | 1200 nM | CCC(=O)NC(Cn1cncn1)CP(=O)(O)O (centres undefined) |
| 16000 nM | 22 µM | 3500 nM | O=C(NC(Cn1cncn1)CP(=O)(O)O)c1ccccc1O (centres undefined) |
| 21000 nM | 25 µM | 4500 nM | O=C(/C=C/c1ccccc1)NC(Cn1cncn1)CP(=O)(O)O (centres undefined) |
| 4500 nM | 5.5 µM | 1300 nM | CC(C)=CC(=O)NC(Cn1cncn1)CP(=O)(O)O (centres undefined) |
| > 50000 nM |  |  | CNC(=O)C(=O)NC(Cn1cncn1)CP(=O)(O)O (centres undefined) |
| 4100 nM | 5.9 µM | 1300 nM | CCCCc1ccc(C(=O)NC(Cn2cncn2)CP(=O)(O)O)cc1 (centres undefined) |
| 3100 nM | 3.7 µM | 880 nM | O=C(CCC1CCCC1)NC(Cn1cncn1)CP(=O)(O)O (centres undefined) |
| 10000 nM | 17 µM | 2200 nM | COCC(=O)NC(Cn1cncn1)CP(=O)(O)O (centres undefined) |
| 800 nM |  |  | CC1(CCC(=O)NC(Cn2cncn2)CP(=O)(O)O)SCCS1 (centres undefined) |
| 2000 nM | 2.12 µM | 550 nM | O=C(COc1ccc(Cl)cc1)NC(Cn1cncn1)CP(=O)(O)O (centres undefined) |
| 2900 nM |  |  | CC1(C)CC(=O)OC1CC(=O)NC(Cn1cncn1)CP(=O)(O)O (centres undefined) |
| 3900 nM | 6.1 µM | 800 nM | CC(=O)NC(Cn1cncn1)CP(=O)(O)O (centres undefined) |
| 20000 nM |  |  | O=C(CCC(=O)c1ccccc1)NC(Cn1cncn1)CP(=O)(O)O (centres undefined) |
| 1500 nM |  |  | O=C(CCc1cccc([N+](=O)[O-])c1)NC(Cn1cncn1)CP(=O)(O)O (centres undefined) |
| 2700 nM | 3.9 µM | 340 nM | O=C(Cc1ccccc1)NC(Cn1cncn1)CP(=O)(O)O (centres undefined) |
| 4000 nM | 5.6 µM | 1450 nM | C/C=C/C(=O)NC(Cn1cncn1)CP(=O)(O)O (centres undefined) |
| 3500 nM | 2.4 µM | 560 nM | O=C(Cc1cccs1)NC(Cn1cncn1)CP(=O)(O)O (centres undefined) |
| > 50000 nM | 100 µM | 10000 nM | O=C(NC(Cn1cncn1)CP(=O)(O)O)c1ccccc1 (centres undefined) |
| 960 nM | 1.14 µM | 270 nM | O=C(CCc1ccccc1)NC(Cn1cncn1)CP(=O)(O)O (centres undefined) |
| 920 nM | 1.26 µM | 250 nM | O=C(CSc1ccccc1)NC(Cn1cncn1)CP(=O)(O)O (centres undefined) |
| 4800 nM | 5 µM | 1130 nM | CC(C)(C)CC(=O)NC(Cn1cncn1)CP(=O)(O)O (centres undefined) |
| 4600 nM | 5.8 µM | 1150 nM | O=C(NC(Cn1cncn1)CP(=O)(O)O)c1c(F)cccc1F (centres undefined) |
| 380 nM | 0.27 µM | 80 nM | O=C(COc1ccccc1)NC(Cn1cncn1)CP(=O)(O)O (centres undefined) |
| 840 nM | 1.22 µM | 340 nM | CCCCCC(=O)NC(Cn1cncn1)CP(=O)(O)O (centres undefined) |

| SMILES | IC50 [1] | Kis [2] | Ki [3] |
| --- | --- | --- | --- |
| NC(Cn1cncn1)CP(=O)(O)O (centres undefined) |  |  | 15 nM |
| O=P(O)(O)CC(O)Cn1cncn1 (centres undefined) |  |  | 0.6 nM |
